According to patent US20060052368A1 (priority 2002, published 2006):

Molecular target: α7 nAChR subtype (Rattus norvegicus, UniProt Q05941)
Assay type: binding
Conditions: read-out: KD of radioligand from saturation curves

Sequence of α7 nAChR subtype (Q05941 23-502 limits assumed): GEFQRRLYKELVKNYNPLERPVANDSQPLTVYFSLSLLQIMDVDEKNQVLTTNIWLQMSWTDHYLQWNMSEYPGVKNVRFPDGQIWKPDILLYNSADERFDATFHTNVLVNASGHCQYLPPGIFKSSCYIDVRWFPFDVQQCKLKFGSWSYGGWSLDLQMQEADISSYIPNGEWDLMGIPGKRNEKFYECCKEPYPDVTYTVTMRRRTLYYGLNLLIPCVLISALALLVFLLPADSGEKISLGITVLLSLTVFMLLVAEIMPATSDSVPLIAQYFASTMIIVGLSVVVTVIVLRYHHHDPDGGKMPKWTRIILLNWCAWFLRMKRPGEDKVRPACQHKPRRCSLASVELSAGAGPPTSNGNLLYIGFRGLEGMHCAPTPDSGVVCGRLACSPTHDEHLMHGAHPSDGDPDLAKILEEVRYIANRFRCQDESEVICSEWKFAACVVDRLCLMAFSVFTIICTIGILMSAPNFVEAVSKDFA

Substance: ^125I-α-Bungarotoxin [^125I-α-BTX]
- Kd: 1.67 nM
